Patent publication US20170283859A1, “MICROFLUIDIC qRT-PCR ANALYSIS OF SINGLE CELLS” (The Trustees Of Columbia University In the City of New York, priority 2014, published 2017)

Assays:
Type in all cases: cell-based
[1] = system: CDKN1A gene expression in single MCF-7 cells; assay: Fully integrated on-chip single-cell RT-qPCR (single analysis unit device), induction of CDKN1A
Procedure: In this example, all steps of single-cell RT-qPCR were integrated in the device from Example 1. […] MCF-7 cells were incubated with MEM media supplemented with 10% FBS and […], and were kept at 37° C. in a humidified incubator containing 5% CO2. The Cells used herein, whether treated or not, were from the same generation of MCF-7 cells to eliminate potential generational gene expression differences. The MCF-7 cell suspension was first diluted to 10^5 cells per mL in a microcentrifuge tube, and mixed to homogenize the suspension and break up cell clusters. The homogenized cell suspension was then driven into the device through the cell inlet via a syringe pump while valves were used to manipulate the direction of the flow. The trapping structure was observed under a microscope. As all cells were directed through the cell trapping unit and the width of the channel at the protruding structure (i.e., the portion of the mold that narrows the channel) within the trapping unit (5 μm) is smaller than the average diameter of MCF-7 cells (18±2 μm), a single cell was immobilized in the trap. Once a single cell was trapped, the upstream control valve (FIG. 5) was activated while the cell washing outlet was opened to direct (the potentially cell-containing) carrier fluid away from the cell trap. On average, 1.5 cells were introduced into the device per second. Single cells were consistently trapped in the microchip in 150 seconds or less. A lysis solution (100 mM TrisHCl, pH 7.5, 500 mM LiCl, 10 mM EDTA, 1% LiDS, 5 mM dithiothreitol) was used to chemically lyse the trapped cells. By mixing oligo(dT)25 functionalized beads with the cell lysate, mRNA templates from a single cell were captured and purified on the surface of the beads. The beads were then moved back to the reaction chamber and retained by an external magnet. With the cell trapping and washing outlets closed and the upstream and downstream valves open (FIG. 5), RT reagents were pipetted into the device chamber, followed by the closure of all the inlets and outlets. Then a pulsed temperature RT protocol was carried out (10 min at 25° C. and 50 min at 42° C.). Similarly, after RT, PCR reagents were introduced into the device which simultaneously flushed away the RT reagent, while the chip was situated on a magnet to immobilize the beads. Once the PCR reagents completely filled the reaction chamber, all the outlets were sealed with plugs. Then the platform was placed on the stage of a fluorescent microscope. Each PCR process was initialized and thermocycled with the following protocols: 10 min at 95° C., followed by 35 cycles of 15 s at 95° C. and 1 min at 60° C. The gene expressions of single cells were assayed for the induction of CDKN1A using a hydrolysis probe/primer. […] The threshold was calculated to be 0.07. […]

[2] = system: GAPDH transcript level in single MCF-7 cells; assay: Microfluidic array single-cell RT-qPCR, housekeeping gene GAPDH; details: 120 μg/mL MMS for 2.5 h
Procedure: During the operation of the array chip, a single analysis unit is selected through the multiplexed valves and then 4x10^6 magnetic beads are introduced (100 nL/s for 20 s) until all analysis units have beads with a syringe pump while an external magnet is held under the chambers. The amount of beads is determined according to the manufacturer's reported bead density and verified by pipetting beads onto a glass slide and counting the total amount of beads with ImageJ software. […] The resulting cDNA template for PCR is amplified (qPCR: 10 min at 95° C., followed by 40 cycles of 15 s at 95° C. and 1 min at 60° C.) while the accumulation of products is imaged on a fluorescence microscope using a hydrolysis probe/primer set (TaqMan®). […] Initially, the fluorescence of FAM is suppressed by NFQ. […] Fluorescent intensities of ROX and FAM are acquired and measured at the end of each PCR cycle (FIG. 29). […] The transcript levels of CDKN1 A and the housekeeping gene GAPDH was measured in MMS treated (120 μg/mL for 2.5 h) and untreated single MCF-7 cells using the microfluidic array. […]

[3] = system: CDKN1A transcript levels in single MCF-7 cells; assay: Microfluidic array single-cell RT-qPCR, drug induced CDKN1A expression
Procedure: During the operation of the array chip, a single analysis unit is selected through the multiplexed valves and then 4x10^6 magnetic beads are introduced (100 nL/s for 20 s) until all analysis units have beads with a syringe pump while an external magnet is held under the chambers. The amount of beads is determined according to the manufacturer's reported bead density and verified by pipetting beads onto a glass slide and counting the total amount of beads with ImageJ software. Next a single analysis unit is reselected with the multiplexed valves and 1.25 μL of cell-containing carrier buffer are introduced (concentration: 10^5 cells/mL, flow rate: 15 nL/s, and infusion time: 83.3 seconds) into the microfluidic device and travel through the cell trap with the first cell to reach the trapping structure becoming trapped. The width of the constriction (5 μm) is smaller than the diameter of the cells (18±2 μm) and therefore the single cell can be immobilized in the trap.
Once a single cell becomes immobilized, the back control valve is opened to allow carrier fluid, potentially containing additional cells, to bypass the trapping region and flow directly to the outlet. To further ensure that no cells remain in the outlet well, buffer is injected into the inlet well with a syringe with a 25 gauge stainless steel needle. Lysis buffer is introduced into the cell trap region of each analysis unit at a flow rate of 2 μl/min over a 5-min period to lyse the trapped cell (Sun et al. 2015). After cell lysis the beads were mixed with the cell lysate by manually moving the magnet and captured the mRNA in the cell content, based on complimentary base pairing between the polyA tails of the mRNA and the oligo(dT)25 residues covalently coupled to the bead surfaces. […] The beads were moved into the active chamber and mixed with the sample (mRNA in cell lysate or XenoRNA) by magnet-driven motion. This process is then repeated for the remaining units of the array chip until five of the RT-qPCR chambers each contain beads with bound mRNA. The sixth chamber provides no-template control.
Reverse transcription is performed in all of the six chambers to convert the mRNA into cDNA, using the bead-bound oligo(dT)25 as a primer and with the chamber temperatures controlled simultaneously in closed loop by the integrated heater and temperature sensor (RT: 10 min at 25° C. and 50 min at 42° C.). The resulting cDNA template for PCR is amplified (qPCR: 10 min at 95° C., followed by 40 cycles of 15 s at 95° C. and 1 min at 60° C.) while the accumulation of products is imaged on a fluorescence microscope using a hydrolysis probe/primer set (TaqMan®). The reagent probe/primer consists of a fluorescein amidite (FAM) reporter dye, a minor groove binder and a nonfluorescent quencher (NFQ). Initially, the fluorescence of FAM is suppressed by NFQ. During the PCR annealing process, the probe binds to a complementary region of the target template. Then, during the elongation process that follows, […] from the probe, causing the fluorescent intensity of FAM to increase. To correct for fluorescent fluctuations due to batch-to-batch changes in cavity volume and PCR component concentrations, a passive reference dye (ROX) is employed to normalize the FAM signal during real-time measurements. Fluorescent intensities of ROX and FAM are acquired and measured at the end of each PCR cycle (FIG. 29).
In this example, stress induced gene expression in single cells was investigated by treating cells with MMS, an alkylating agent, and then analyzing them by on-chip RT-qPCR. […]
In each test, five MMS treated or untreated single cells were isolated and immobilized in five separate analysis units of the array, and the remaining unit was used as a no-template control. Similar to the above mentioned protocol, after cell trapping and lysis, the two-step RT-qPCR was initialized. […]

COS(C)(=O)=O [MMS, methyl methanesulfonate]
amount of starting templates higher than in untreated single cells ([1]; 2.5 h MMS treated MCF-7 cells): about 45 folds | Cq value of CDKN1A RT-qPCR ([1]; MMS treated single MCF-7 cells, 2.5 h, mean of five repeated tests, untreated 32.3): 26.8 | mean Cq value lower than untreated single cells ([1]; MMS treated vs untreated single MCF-7 cells): 5.48 cycles | transcript levels of the CDKN1A gene after MMS treatment ([1]; single MCF-7 cells): upregulated significantly | ΔCq (difference between Cq of treated and untreated cells), GAPDH [2]: approximately 0.5 | ΔCq (difference between Cq of treated and untreated cells), CDKN1A ([3]; 120 μg/mL MMS for 2.5 h): 3.0 | mean Cq value of CDKN1A ([3]; 120 μg/mL MMS for 2.5 h, untreated 33.5): 30.5 | transcript levels of CDKN1A on treating single cells with MMS ([3]; 120 μg/mL for 2.5 h): upregulated significantly | upregulation of CDKN1A expression vs MMS dosage ([3]; 30 to 150 μg/mL, 2.5 h): positively correlated with MMS dosage | mean Cq value of CDKN1A ([3]; dosage 30 μg/ml, 2.5 h): 33.5 | mean Cq value of CDKN1A ([3]; dosage 150 μg/ml, 2.5 h): 29.3 | mean Cq value of CDKN1A ([3]; exposure time 0.5 h): 32.9 | mean Cq value of CDKN1A ([3]; exposure time 4.5 h): 28.1 | inter-unit Cq difference for CDKN1A ([3]; first dose step (doses from 30 to 150 μg/ml, 2.5 h)): 0.4 | inter-unit Cq difference for CDKN1A ([3]; fourth dose step (doses from 30 to 150 μg/ml, 2.5 h)): 0.7 | upregulation of CDKN1A expression vs treating time duration ([3]; range of 0.5 to 4.5 h): positively correlated with treating time duration | inter-unit Cq difference for CDKN1A ([3]; second dose step (doses from 30 to 150 μg/ml, 2.5 h)): 0.7 | inter-unit Cq difference for CDKN1A ([3]; third dose step, 90 to 120 μg/ml, 2.5 h): 1.3
